In ChEMBL document CHEMBL3244132, “Semisynthetic aminoglycoside antibacterials. 6. Synthesis of sisomicin, Antibiotic G-52, and novel 6'-substituted analogues of sisomicin from aminoglycoside 66-40C” (J Med Chem, 1978):
In brackets after ≈: the same amount, converted by molar mass. Activity calls are given as the source filed them. The rule behind the calls is not given here.

What was measured:
[1] = system: Escherichia coli; experiment: Antimicrobial activity against Escherichia coli ATCC 10536 by tube dilution method; type: functional
[2] = system: Escherichia coli; experiment: Antimicrobial activity against Escherichia coli Baker 2 carrying APH(3')-I by tube dilution method; type: functional
[3] = system: Escherichia coli; experiment: Antimicrobial activity against Escherichia coli LA290R55 carrying ANT(2'') by tube dilution method; type: functional
[4] = system: Escherichia coli; experiment: Antimicrobial activity against Escherichia coli JR88 carrying AAC(3) by tube dilution method; type: functional
[5] = system: Escherichia coli; experiment: Antimicrobial activity against Escherichia coli HL97/W677 carrying AAC(6') by tube dilution method; type: functional
[6] = system: Pseudomonas aeruginosa; experiment: Antimicrobial activity against Pseudomonas aeruginosa St. M. 762 by tube dilution method; type: functional
[7] = system: Pseudomonas aeruginosa; experiment: Antimicrobial activity against Pseudomonas aeruginosa St. M. 1395 by tube dilution method; type: functional
[8] = system: Pseudomonas aeruginosa; experiment: Antimicrobial activity against Pseudomonas aeruginosa Stone 130 carrying AAC(3) by tube dilution method; type: functional
[9] = system: Pseudomonas aeruginosa; experiment: Antimicrobial activity against Pseudomonas aeruginosa GN 315 carrying AAC(6') by tube dilution method; type: functional
[10] = system: Klebsiella pneumoniae; experiment: Antimicrobial activity against Klebsiella pneumoniae Adler 17 carrying APH(3')-I by tube dilution method; type: functional
[11] = system: Klebsiella pneumoniae; experiment: Antimicrobial activity against Klebsiella pneumoniae Georgetown 3694 carrying APH(2'') by tube dilution method; type: functional
[12] = system: Providencia; experiment: Antimicrobial activity against Providencia 164 carrying AAC(2')-I by tube dilution method; type: functional
[13] = system: Proteus mirabilis; experiment: Antimicrobial activity against Proteus mirabilis Harding by tube dilution method; type: functional
[14] = system: Providencia rettgeri; experiment: Antimicrobial activity against Providencia rettgeri Membel by tube dilution method; type: functional
[15] = system: Providencia rettgeri; experiment: Antimicrobial activity against Providencia rettgeri Anderson by tube dilution method; type: functional
[16] = system: Serratia marcescens; experiment: Antimicrobial activity against Serratia marcescens Dalton by tube dilution method; type: functional
[17] = system: Salmonella typhimurium; experiment: Antimicrobial activity against Salmonella typhimurium Gr. B. by tube dilution method; type: functional, Salmonella enterica subsp. enterica serovar Typhimurium; conditions: Salmonella enterica
[18] = system: Bacillus subtilis; experiment: Antimicrobial activity against Bacillus subtilis ATCC 6633 by tube dilution method; type: functional
[19] = system: Staphylococcus aureus; experiment: Antimicrobial activity against Staphylococcus aureus 209 P by tube dilution method; type: functional
[20] = system: Staphylococcus aureus; experiment: Antimicrobial activity against Staphylococcus aureus Wood by tube dilution method; type: functional
[21] = system: Staphylococcus aureus; experiment: Antimicrobial activity against Staphylococcus aureus Ziegler by tube dilution method; type: functional
[22] = system: Staphylococcus aureus; experiment: Antimicrobial activity against Staphylococcus aureus 59N by tube dilution method; type: functional
[23] = system: Streptococcus pyogenes; experiment: Antimicrobial activity against Streptococcus pyogenes C by tube dilution method; type: functional
[24] = system: Streptococcus pyogenes; experiment: Antimicrobial activity against Streptococcus pyogenes 27 by tube dilution method; type: functional
[25] = system: Streptococcus pyogenes; experiment: Antimicrobial activity against Streptococcus pyogenes Group A Cruz by tube dilution method; type: functional
[26] = system: Streptococcus pyogenes; experiment: Antimicrobial activity against Streptococcus pyogenes Alvarez by tube dilution method; type: functional
[27] = Acute toxicity in albino CF1 mouse; type: organism-based; conditions: in vivo
[28] = system: Trichomonas vaginalis; experiment: Antiprotozoal activity against Trichomonas vaginalis after 48 hrs; type: functional
[29] = system: Entamoeba histolytica; experiment: Antiprotozoal activity against Entamoeba histolytica JH; type: functional
[30] = system: Histomonas meleagridis; experiment: Antiprotozoal activity against Histomonas meleagridis; type: functional
[31] = system: Histomonas meleagridis; experiment: Antiprotozoal activity against Histomonas meleagridis at 20 ug/ml; type: functional
[32] = system: Heligmosomoides polygyrus; experiment: Anthelmintic activity against Nematospiroides dubius infected in mouse at 195 mg/kg qd for 5 days administered after 2 weeks of infection; type: functional, organism-based; design: dose 195 mg/kg
[33] = system: Rodentolepis nana; experiment: Anthelmintic activity against Hymenolepis nana infected in mouse at 195 mg/kg qd for 5 days administered after 2 weeks of infection; type: functional, organism-based; design: dose 195 mg/kg
[34] = system: Syphacia obvelata; experiment: Anthelmintic activity against Syphacia obvelata infected in mouse at 195 mg/kg qd for 5 days administered after 2 weeks of infection; type: functional, organism-based; design: dose 195 mg/kg

| SMILES | MIC [1] | MIC [2] | MIC [3] | MIC [4] | MIC [5] | MIC [6] | MIC [7] | MIC [8] | MIC [9] | MIC [10] | MIC [11] | MIC [12] | MIC [13] | MIC [14] | MIC [15] | MIC [16] | MIC [17] | MIC [18] | MIC [19] | MIC [20] | other results |
| --- | --- | --- | --- | --- | --- | --- | --- | --- | --- | --- | --- | --- | --- | --- | --- | --- | --- | --- | --- | --- | --- |
| CN[C@@H]1[C@@H](O)[C@@H](O[C@@H]2[C@@H](O)[C@H](O[C@H]3OC(CNCCc4ccccc4)=CC[C@H]3N)[C@@H](N)C[C@H]2N)OC[C@]1(C)O | 0.75 µg/mL (≈ 1.36 µM) | 7.5 µg/mL (≈ 13.6 µM) | > 25 µg/mL | > 25 µg/mL | 0.75 µg/mL (≈ 1.36 µM) | > 25 µg/mL | > 25 µg/mL | > 25 µg/mL | > 25 µg/mL | > 25 µg/mL | > 25 µg/mL | > 25 µg/mL | > 25 µg/mL | > 25 µg/mL | > 25 µg/mL | > 25 µg/mL | 17.5 µg/mL (≈ 31.7 µM) | 0.03 µg/mL (≈ 0.0544 µM) | 3 µg/mL (≈ 5.44 µM) | 3 µg/mL (≈ 5.44 µM) | MIC [21]: 7.5 µg/mL (≈ 13.6 µM); MIC [22]: 3 µg/mL (≈ 5.44 µM); MIC [23]: > 25 µg/mL; MIC [24]: 17.5 µg/mL (≈ 31.7 µM); MIC [25]: > 25 µg/mL; MIC [26]: > 25 µg/mL; LD50 [27]: 30 mg/kg; Activity [28]: inactive; Activity [29]: inactive; Activity [30]: inactive |
| CN[C@@H]1[C@@H](O)[C@@H](O[C@@H]2[C@@H](O)[C@H](O[C@H]3OC(CO)=CC[C@H]3N)[C@@H](N)C[C@H]2N)OC[C@]1(C)O | 0.75 µg/mL (≈ 1.67 µM) | 17.5 µg/mL (≈ 39 µM) | > 25 µg/mL | > 25 µg/mL | 0.3 µg/mL (≈ 0.669 µM) | 3 µg/mL (≈ 6.69 µM) | 17.5 µg/mL (≈ 39 µM) | > 25 µg/mL | > 25 µg/mL | 3 µg/mL (≈ 6.69 µM) | > 25 µg/mL | > 25 µg/mL | 3 µg/mL (≈ 6.69 µM) | > 25 µg/mL | > 25 µg/mL | 3 µg/mL (≈ 6.69 µM) | 3 µg/mL (≈ 6.69 µM) | 0.075 µg/mL (≈ 0.167 µM) | 0.3 µg/mL (≈ 0.669 µM) | 0.3 µg/mL (≈ 0.669 µM) | MIC [21]: 0.3 µg/mL (≈ 0.669 µM); MIC [22]: 0.075 µg/mL (≈ 0.167 µM); MIC [23]: > 25 µg/mL; MIC [24]: > 25 µg/mL; MIC [25]: > 25 µg/mL; MIC [26]: > 25 µg/mL; LD50 [27]: 65 mg/kg; MIC [28]: < 10 µg/mL; MIC [29]: 10 µg/mL (≈ 22.3 µM); Activity [31]: inactive; Activity [32]: inactive; Activity [33]: inactive; Activity [34]: inactive |
